Here are results for two compounds from article PMC11375794, “Discovery of new Hsp90–Cdc37 protein–protein interaction inhibitors: in silico screening and optimization of anticancer activity” (RSC Advances, 2024).

SMILES strings stand for the structures.

Format in all cases: cell-based
Experiment [1] relates to leukemia cell line THP-1. The experiment can be described thus: MTS cell viability (antiproliferative) assay in THP-1. To be noted: mean ± SD; for THP-1 IC50: 72 hours; for IC50: Homo sapiens, THP-1, 72 hours. How it is done:
Hormone-positive breast cancer cell line MCF-7 (ATCC-HTB-22; ATCC) was grown in Dulbecco's Modified Eagle's Medium (DMEM), while Ewing sarcoma cell line SK-N-MC (a kind gift from Beat Schäfer) and THP-1 (ATCC-TIB-202; ATCC) cells were grown in Roswell Park Memorial Institute (RPMI) 1640. The medium was supplemented with 10% heat-inactivated fetal bovine serum (Gibco, Thermo Fisher Scientific, Waltham, MA, USA), 100 U per mL penicillin, 100 μg per mL streptomycin, and 2 mM L-glutamine (all from Sigma-Aldrich, St. Louis, MO, USA). All cell lines were incubated at 37 °C in a 5% CO2 atmosphere.
The antiproliferative activity of the compounds was evaluated against MCF-7 (ATCC-HTB-22; ATCC), SK-N-MC (a kind gift from Beat Schäfer) and THP-1 (ATCC-TIB-202; ATCC) cancer cell lines using the MTS assay (Promega, Madison, WI, USA). Cells were seeded in 96-well plates at a density of 2 × 10^4 cells per mL in 100 μL of growth medium for THP-1 and were treated with compounds and controls directly, while 3 × 10^3 cells per mL for MCF-7 and SK-N-MC were seeded in 100 μL of growth medium and allowed to adhere overnight following the treatment. In all cases the cells were treated with respective newly prepared compounds, positive controls (17-DMAG for MCF-7 and SK-N-MC; PU-H71 for THP-1) and a vehicle control (0.5% DMSO). The incubation time after treatment was 72 hours, then CellTiter96® Aqueous One Solution Reagent (Promega, Madison, WI, USA) was added to each well. Following a 3 hours incubation, absorbance was measured at 492 nm using BioTek's Synergy™ 4 Hybrid Microplate Reader (Winooski, VT, USA). The measurements were performed in two biological repetitions and each time the experiment was performed in a triplicate. The IC50 values, representing the concentration of inhibitor required for half-maximal inhibition, are the average of three independent experiments and were calculated using GraphPad Prism 9.5.0 software (San Diego, CA, USA).

Experiment [2] concerns Hsp90 client protein levels (Cdk4, Akt, c-Raf, ERα, IGF1R) and Hsp70, Hsp90 in MCF-7 cells. The experiment can be described thus: Western blot of Hsp90 client proteins and heat shock proteins. To be noted: for ERα level: MCF-7, 20 μM; for heat shock response (Hsp70 and Hsp90 levels): MCF-7, 24 hours. As for the experimental part: MCF-7 cells were treated with compounds 8c (20 μM and 50 μM), 13g (20 μM and 50 μM) and DDO-5936 (20 μM) or 0.5% DMSO as a negative control. The cells were incubated with the compounds or negative control for 24 hours. After incubation, the cells were rinsed with PBS (Gibco, Thermo Fisher Scientific, Waltham, MA, USA) and lysed using RIPA buffer containing 50 mM Tris–HCl pH 7.4, 150 mM NaCl, 1% NP-40, 0.5% sodium deoxycholate, and 1 mM EDTA. The RIPA buffer was further supplemented with Halt™ Protease Inhibitor Cocktail and Halt™ Phosphatase Inhibitor Cocktail (both from Thermo Fisher Scientific, Waltham, MA, USA) at a 1 : 100 dilution. The lysates were then frozen for at least 24 hours. Upon thawing, the lysates were sonicated and centrifuged at 15 000 rpm for 20 minutes at 4 °C. Only the supernatants were collected, and protein concentration was measured using the DC protein assay (Bio-Rad, Hercules, California, USA). Proteins (20 μg) were separated by SDS-PAGE on a 10% acrylamide/bisacrylamide gel, running at 80 V for 15 minutes followed by 130 V for 60 minutes. The separated proteins were then transferred onto a nitrocellulose membrane using the iBlot 2 Dry Blotting System (Thermo Fisher Scientific, Waltham, MA, USA). The membranes were blocked with 5% BSA for 1 hour at room temperature to prevent nonspecific binding. Primary antibodies were then added, and the membranes were incubated overnight at 4 °C. The primary antibodies (Cell Signaling, Danvers, MA, USA) used included anti-β-ActinMouse mAb (1 : 5000), anti-Hsp90 Rabbit mAb (1 : 1000), anti-Hsp70 Mouse mAb (1 : 1000), anti-IGF1R Rabbit (1 : 1000), anti-CDK4 Rabbit (1 : 1000), anti-ERα Mouse mAb (1 : 1000), anti-Akt Rabbit mAb (1 : 1000), and anti-c-Raf Rabbit mAb (1 : 1000). Secondary antibodies included anti-rabbit IgG, HRP-linked antibody (1 : 10 000), and anti-mouse IgG, HRP-linked antibody (1 : 10 000), which were incubated with the membranes for 1 hour at room temperature. Following washes, SuperSignal™ West Femto Maximum Sensitivity Substrate (Thermo Fisher Scientific, Waltham, MA, USA) was applied. Visualization of the blots was performed using the UVITEC Cambridge Imaging System (UVITEC, Cambridge, UK), and densitometric analysis of the western blot bands was conducted using NineAlliance software. Relative protein densities were calculated in relation to β-actin, used as a loading control.

Experiment [3] has as its system MCF-7 breast cancer cell line. The experiment is described as follows: MTS cell viability (antiproliferative) assay in MCF-7. To be noted: Homo sapiens, MCF7, 72 h, MTS assay, 72 hours, mean ± SD. For orientation: Formazan colour is commonly taken as a measure of viable cells.

As usually defined, the IC50 is the concentration that inhibits the measured activity by half. For the compound `O=C(NCCOc1ccccc1)c1ccc(Nc2cc(N3CCNCC3)ncn2)cc1` [Compound 13g, N-(2-Phenoxyethyl)-4-((6-(piperazin-1-yl)pyrimidin-4-yl)amino)benzamide], in experiment [1], the “THP-1 IC50” value is given as “retained some inhibitory activity” and the IC50 is 41.5 ± 6.3 µM. Also, the ERα level result in experiment [2] (24 hours) was “significantly influenced”. In addition, the “concentration of kinase clients Cdk4, c-Raf, IGF1R, and Akt” value in experiment [2] (MCF-7, 50 μM, 24 hours) is listed as “decreased”. Also, in experiment [2], the “heat shock response (Hsp70 and Hsp90 levels)” value is “do not induce a heat shock response”. Also, the IC50 in experiment [3] is 19.3 ± 2 µM.

For `CN(CCOc1ccccc1)C(=O)c1csc(Nc2cc(N3CCNCC3)ncn2)n1` [Compound 8c, N-Methyl-N-(2-phenoxyethyl)-2-((6-(piperazin-1-yl)pyrimidin-4-yl)amino)thiazole-4-carboxamide], in experiment [1], the “THP-1 IC50” value is “retained some inhibitory activity” and the IC50 stood at 33.9 ± 8.5 µM. Besides, the ERα level entry in experiment [2] (24 hours) was “significantly influenced”. Also, in experiment [2] (MCF-7, 50 μM, 24 hours), the Hsp70 levels entry is listed as “statistically insignificant decrease”; the “concentration of kinase clients Cdk4, c-Raf, IGF1R, and Akt” value was “decreased”. In addition, the “heat shock response (Hsp70 and Hsp90 levels)” value in experiment [2] is “do not induce a heat shock response”. Moreover, the IC50 in experiment [3] was 20 ± 1.2 µM.
